Literature values as cited in patent US9974861B2, “Peptide slow-release formulations” (CAMURUS AB, priority 2007, dated 2018).

Tests used:
[1] = test system: SSTRs (SSTR1-SSTR5)

| Compound | Terminal half-life (in vivo) | Selectivity for SSTR2 and SSTR5 [1] | Biological half-life (natural hormone) | Affinity of SSTR1-SSTR5 ([1]; five known types of SSTRs) |
| --- | --- | --- | --- | --- |
| C[C@@H](O)[C@@H]1NC(=O)[C@H](CCCCN)NC(=O)[C@@H](Cc2c[nH]c3ccccc23)NC(=O)[C@H](Cc2ccccc2)NC(=O)[C@@H](NC(=O)[C@H](N)Cc2ccccc2)CSSC[C@@H](C(=O)N[C@H](CO)[C@@H](C)O)NC1=O [Octreotide, D-Phe-Cys-Phe-D-Trp-Lys-Thr-Cys-Thr-ol (2-7 disulphide bridge)] | around 1.7 hours | high selectivity | – | – |
| Ala-Gly-Cys-Lys-Asn-Phe-Phe-Trp-Lys-Thr-Phe-Thr-Ser-Cys [SST-14] | – | – | 1-3 minutes | equally high affinity |
